From patent publication US6770654B2, “Indole derivatives and use thereof in medicines” (Toray Industries, Inc., priority 2000, dated 2004)
Where a name gives a salt, the structure may show the parent alone.

Legend:
δ opioid receptor = biological target: T1, δ opioid receptor (Mus musculus, UniProt P32300); assay: Mouse vas deferens (MVD): antagonism against the δ agonist DPDPE, pA2 by Schild method; assay type: cell-based
T1 construct: Each of the vas deferens isolated from the mice was hung in a Magnus tube; from tissue; host or cells: vas deferens of male ddy strain mice
T1 sequence (P32300 whole entry): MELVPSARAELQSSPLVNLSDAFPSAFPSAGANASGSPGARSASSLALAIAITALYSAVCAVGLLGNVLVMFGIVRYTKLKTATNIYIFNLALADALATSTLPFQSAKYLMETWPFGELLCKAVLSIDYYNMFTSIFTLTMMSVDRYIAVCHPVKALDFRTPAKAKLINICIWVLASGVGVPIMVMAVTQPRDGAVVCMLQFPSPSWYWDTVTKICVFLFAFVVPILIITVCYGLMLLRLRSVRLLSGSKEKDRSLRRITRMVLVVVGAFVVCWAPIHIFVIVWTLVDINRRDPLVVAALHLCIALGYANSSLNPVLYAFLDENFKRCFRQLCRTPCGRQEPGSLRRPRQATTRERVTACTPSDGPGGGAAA
Protocol: Using mouse vas deferens (MVD), the compounds were examined for antagonism against opioid receptor agonists, i.e., morphine (μ), DPDPE (δ), and U50,488H (κ).
Male ddy strain mice were used in this experiment. Each of the vas deferens isolated from the mice was hung in a Magnus tube which was maintained at 37° C., filled with a Krebes-Henseleit solution (NaCl 118 mM; KCl 4.7 mM; CaCl2 2.5 mM; KH2PO4 1.1 mM; NaHCO3 25 mM; glucose 11 mM), and aerated with 5% carbon dioxide and 95% oxygen. Electric stimulation was applied through upper and lower ring-shaped platinum electrodes at 0.1 Hz and 5.0 mS. Tissue contraction was recorded on a polygraph using an Isometric Transducer.
Morphine, DPDPE, and U50,488H were added in a cumulative manner to determine the IC50 values (concentration for 50% inhibition of contraction induced by electric stimulation). Next, 10 nM of a sample compound was added to the system beforehand, and 20 minutes later, morphine, DPDPE, and U50,488H were added in a cumulative manner. According to the above procedure, the ratio of the IC50 values of morphine, DPDPE, and U50,488H in the presence of the sample compound to that in its absence was determined, and the pA2 values were calculated in accordance with the Schild et al.'s method (Schild, H. O., Br. J. Pharamacol. Chemother. 4, 277 (1949)).

Structure (SMILES) | melting point | Kb (δ opioid receptor) [nM]
Oc1ccc2c3c1O[C@H]1c4c(c5c(O)c(F)cc6c5n4CCC6)C[C@@]4(O)[C@@H](C2)N(CC2CC2)CC[C@]314 (as salt: methanesulfonate) | 280 °C (dec.) | 
Oc1ccc2c3c1O[C@H]1c4c(c5cc(F)cc6c5n4CC[C@@H]6O)C[C@@]4(O)[C@@H](C2)N(CC2CC2)CC[C@]314 (as salt: methanesulfonate) [Compound 3, 17-cyclopropylmethyl-6,7-didehydro-4,5α-epoxy-8′-fluoro-5′,6′-dihydro-4′H-pyrrolo[3,2,1-ij]quinolino[2′,1′:6,7]-morphinan-3,6′β,14β-triol] | 240 °C (dec.) | 
Oc1ccc2c3c1O[C@H]1c4c(c5cc(F)cc6c5n4CC[C@@H]6O)C[C@@]4(O)[C@@H](C2)N(CC2CC2)CC[C@]314 [Compound 3, 17-cyclopropylmethyl-6,7-didehydro-4,5α-epoxy-8′-fluoro-5′,6′-dihydro-4′H-pyrrolo[3,2,1-ij]quinolino[2′,1′:6,7]-morphinan-3,6′β,14β-triol] |  | 3.98
